The target in assay [1] is T1, GlyT-1 (Rattus norvegicus, UniProt P28572).
T1 construct: the tissues of whole brains or each specific brain region were homogenized; from tissue; host or cells: rat brain (whole brain or dissected regions; male Crl:CD (SD) rats)
T1 sequence (P28572 1-638): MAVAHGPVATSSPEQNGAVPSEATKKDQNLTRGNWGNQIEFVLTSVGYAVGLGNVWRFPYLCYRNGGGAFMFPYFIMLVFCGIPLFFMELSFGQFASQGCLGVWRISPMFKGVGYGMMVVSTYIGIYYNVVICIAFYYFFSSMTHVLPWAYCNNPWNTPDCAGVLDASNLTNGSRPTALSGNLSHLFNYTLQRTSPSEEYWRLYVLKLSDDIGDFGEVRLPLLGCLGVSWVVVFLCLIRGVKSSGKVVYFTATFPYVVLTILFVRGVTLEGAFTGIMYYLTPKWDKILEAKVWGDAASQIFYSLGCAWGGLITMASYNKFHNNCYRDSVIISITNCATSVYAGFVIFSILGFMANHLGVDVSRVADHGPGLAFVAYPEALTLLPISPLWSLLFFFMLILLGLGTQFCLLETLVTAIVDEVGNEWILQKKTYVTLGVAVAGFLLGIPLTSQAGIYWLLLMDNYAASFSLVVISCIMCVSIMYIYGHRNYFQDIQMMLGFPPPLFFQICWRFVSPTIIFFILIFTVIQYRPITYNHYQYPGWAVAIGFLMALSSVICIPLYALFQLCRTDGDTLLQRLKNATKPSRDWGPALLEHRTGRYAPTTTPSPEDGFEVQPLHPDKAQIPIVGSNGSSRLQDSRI
The assay is described as follows: Inhibition of [14C]glycine uptake in rat brain membranes. It is filed as biochemical. The procedure: The homogenate was centrifuged at 1,000 g for 10 min to remove nuclei and debris, and then the supernatant was centrifuged again at 20,000 g for 20 min (synaptosomal P2 fraction). The pellet was washed and re-suspended in ice-cold 0.32 M sucrose, buffered with 10 mM HEPES (pH 7.4) and centrifuged again at 20,000 g for 20 min (washed P2 fraction). The pellet was re-suspended in 10 volumes of assay buffer with the following composition: 10 mM HEPES buffer (pH 7.4) containing 140 mM NaCl, 5.5 mM KCl, 1.8 mM CaCl2, 0.8 mM MgSO4, 5 mM glucose and 5 mM L-alanine (HB). The protein concentrations were measured by using a DC protein assay kit (Bio-Rad Laboratories Inc., Tokyo, Japan).
Non-specific uptake was estimated in the presence of 30 µM SSR504734. […] The filters were washed by buffer, and the radioactivity trapped by the filters was determined using a liquid scintillation counter as described above.
(§1) The data are shown as the mean ± standard error of the mean (S.E.M.). The dissociation constant (Kd) and maximal binding (Bmax) values from saturation binding and the IC50 values from binding displacement by each drug were determined using the program GraphPad Prism (GraphPad Software, San Diego, CA). […] Correlation was analyzed by Pearson's Correlation Coefficient (PASW Statistics 19, Tokyo, Japan). Significance was set at p<0.05.

Assay [2] deals with T1, GlyT-1. The assay is described as follows: Drug inhibition of [3H]CHIBA-3007 binding to rat brain membranes. The note with it: [3H]CHIBA-3007 (1 nM). The procedure: The supernatant was discarded and the pellet was re-suspended, homogenized and centrifuged as above. The membrane pellet was washed and re-suspended in ice-cold HEPES buffer and was then centrifuged three times. The final pellet was re-suspended in 15 volumes of the buffer (120 mM NaCl, 2 mM KCl, 1 mM CaCl2, 1 mM MgCl2 10 mM HEPES, pH 7.5 at room temperature).
The binding reaction was terminated by rapid vacuum filtration onto Whatman GF/B glass filters pretreated with 0.5% polyethyleneimine (Sigma-Aldrich Co.) using a 24-channel cell harvester (Brandell, Gaithersburg, MD). The filters were washed with 5 mL of ice-cold assay buffer 3 times, and placed in vials with 4 mL scintillation cocktail. The radioactivity trapped by the filters was determined using a liquid scintillation counter (Beckman LS-6500; Beckman Coulter K.K., Tokyo, Japan).
as §1

In assay [3] the test system is GlyT-1. The note with it: read-out: IC50 for [3H]glycine uptake; cited from earlier work.
The subject of assay [4] is GlyT-1. Conditions: cited from earlier work.
The target in assay [5] is T1, GlyT-1. Conditions: cited from earlier work.
The target of assay [6] is T1, GlyT-1. The assay is described as follows: Equilibrium saturation binding of [3H]CHIBA-3007 to rat brain membranes. The procedure: For saturation-binding isotherms, 6 grade-diluted concentrations of [^3H]CHIBA-3007 (0.3125–10 nM) were used. Specific binding of [^3H]CHIBA-3007 to rat brain membranes was saturable and rapid, and represented >90% of total binding over the concentration range of [^3H]CHIBA-3007 (Figure 2).
Figure 2 Specific binding of [^3H]CHIBA-3007 to rat brain membranes. Rat brain membranes were incubated with various concentrations of [^3H]CHIBA-3007 (0.3125–10 nM) for 120 min at room temperature. Nonspecific binding was estimated in the presence of 10 µM SSR504734. The results are from a typical experiment and values are the average of duplicate determinations. […] TB: total binding, NSB: nonspecific binding, SB: specific binding. The results are means ± S.E.M. of three independent experiments performed in duplicate. […] The data are the mean of three independent experiments performed in duplicate.
(§2) For the [^3H]CHIBA-3007-binding assay, the tissues of whole brains or each specific brain region were homogenized in 15 volumes (w/v) of 10 mM 4-(2-hydroxyethyl)-1- piperazineethanesulfonic acid (HEPES) at pH 7.4 for 30 s on ice. The homogenate was centrifuged at 40,000 g for 15 min at 4°C. The supernatant was discarded and the pellet was re-suspended, homogenized and centrifuged as above. The membrane pellet was washed and re-suspended in ice-cold HEPES buffer and was then centrifuged three times. The final pellet was re-suspended in 15 volumes of the buffer (120 mM NaCl, 2 mM KCl, 1 mM CaCl2, 1 mM MgCl2 10 mM HEPES, pH 7.5 at room temperature).
Assays of the binding of [^3H]CHIBA-3007 to rat brain membranes were performed. Aliquots of the rat brain membrane suspension (200 µL) were added in duplicate to a reaction mixture containing [^3H]CHIBA-3007 and the indicated concentrations of test drug in a final volume of 0.5 mL. Non-specific binding was estimated in the presence of 10 µM SSR504734, a potent and selective GlyT-1 inhibitor [34]. [3H]CHIBA-3007 binding was allowed to occur for 120 min at room temperature for the equilibrium saturation and inhibition studies. The binding reaction was terminated by rapid vacuum filtration onto Whatman GF/B glass filters pretreated with 0.5% polyethyleneimine (Sigma-Aldrich Co.) using a 24-channel cell harvester (Brandell, Gaithersburg, MD). The filters were washed with 5 mL of ice-cold assay buffer 3 times, and placed in vials with 4 mL scintillation cocktail. The radioactivity trapped by the filters was determined using a liquid scintillation counter (Beckman LS-6500; Beckman Coulter K.K., Tokyo, Japan).
as §1

For assay [7], the target named is T1, GlyT-1. Description: Regional distribution of [3H]CHIBA-3007 binding in rat brain. Conditions: [3H]CHIBA-3007 1 nM, seven rat brain regions. The procedure:
After sacrificing the rats by decapitation, the brains were rapidly removed from the skulls. Whole brains or seven specific cerebral regions - the cerebral cortex, striatum, hippocampus, thalamus, midbrain, cerebellum and pons - dissected on ice by the method of Glowinski and Iversen were stored at −80°C until use for the assay.
as §2
Assays of the binding of [^3H]CHIBA-3007 to rat brain membranes were performed. […] The radioactivity trapped by the filters was determined using a liquid scintillation counter (Beckman LS-6500; Beckman Coulter K.K., Tokyo, Japan).

Setting [8] is: 120 min room temperature, mean ± S.E.M., n=3.

Consider 14 molecules from PMC3121759 (PLoS ONE, 2011).

Values joined by “and” are separate entries in the source; they are usually repeats but may differ in a detail not shown here. Identical values can stand only once. Like-named read-outs stand apart in the source and are kept apart here.

Turning to `CN(CC[C@@H](Oc1ccc(C(F)(F)F)cc1)c1ccccc1)CC(=O)O` (racemic) [Org24598, (R,S)-(±)N-methyl-N-[(4-trifluoromethyl)phenoxy]-3-phenylpropylglycine], on GlyT-1 [1], the IC50 was 653 ± 154 nM. Moreover, the Ki on GlyT-1 [2] (setting [8]) is 16.9 ± 3.1 nM.
As for `N[C@@H](COC(c1cccc(F)c1)c1ccccc1OCc1ccccc1)C(=O)O` (stereo partly drawn) [ALX1393, O-[(2-benzyloxyphenyl-3-flurophenyl)methyl]-L-serine], on GlyT-1 [2] (setting [8]), the affinity, expressed as Ki, was 852 ± 56.4 nM.
`O=C(N[C@@H](c1cccc(-c2cn[nH]c2)c1)[C@H]1CCCCN1)c1nccc(C(F)(F)F)c1Cl` [CHIBA-3008, N-((S)-(3-(1H-pyrazol-4-yl)phenyl)((R)-piperidin-2-yl)methyl)-3-chloro-4-(trifluoromethyl)pyridine-2-carboxamide]: the IC50 in the assay on GlyT-1 [3] was 0.2 nM. The molecule also showed a Ki on GlyT-1 [2] (setting [8]) of 2.2 ± 0.6 nM.
In the case of `O=C(N[C@@H](c1ccsc1)[C@H]1CCCCN1)c1nccc(C(F)(F)F)c1Cl` [Desmethyl-CHIBA-3007, 3-chloro-N-((S)-((R)-piperidin-2-yl)(thiophen-3-yl)methyl)-4-(trifluoromethyl)picolinamide], on GlyT-1 [1], it took 187 ± 40 nM to reach half-maximal inhibition (IC50). Also, the Ki on GlyT-1 [2] (setting [8]) came out at 35.9 ± 1.3 nM.
Turning to `Cc1cccc(C)c1C(=O)N[C@@H](c1ccccc1)C1(N(C)C)CCCC1` [GSK931145], in the assay with GlyT-1 [4], the “pIC50 for inhibiting [3H]glycine uptake” value is on record as 7.58.
`CN(CCOc1ccc(-c2ccc3c(c2)OCO3)cc1C(C)(C)C)CC(=O)O` [LY2365109] returned an IC50 against GlyT-1 [1] of 1350 nM. Also, the Ki on GlyT-1 [2] (setting [8]) amounted to 16.2 ± 4.9 nM.
In turn, `CN(CCC(Oc1ccc(-c2ccccc2)cc1)c1ccc(F)cc1)CC(=O)O` (centres unmarked) [NFPS/ALX5407, N-[3-(4-fluorophenyl)-3-(4-phenyl-phenoxy)propyl]-sarcosine] registered an IC50 against GlyT-1 [1] of 83.7 ± 30.3 nM. In addition, at GlyT-1 [5], the “Type of interaction with binding of [3H]SB-733993 and [3H]GSK931145” value is listed as “uncompetitive interactions”. This molecule also showed a Ki on GlyT-1 [2] (setting [8]) of 4.1 ± 0.9 nM.
Consider `COc1ccc2c(c1)CC[C@H](CN(C)CC(=O)O)[C@@H]2c1ccccc1` [Org25935], for which the “Type of interaction with binding of [3H]SB-733993 and [3H]GSK931145” value on GlyT-1 [5] is on record as “uncompetitive interactions”.
For `O=C(N[C@@H](c1ccccc1)[C@@H]1CCCCN1)c1cccc(C(F)(F)F)c1Cl` [SSR504734], the “pIC50 for inhibiting [3H]glycine uptake” value with GlyT-1 [4] was 6.52. At GlyT-1 [1], this molecule had an IC50 of 84.5 ± 29.8 nM. The Ki on GlyT-1 [2] (setting [8]) is 24.6 ± 0.8 nM.
As to `CNCC(=O)O` [Sarcosine, sarcosine], the IC50 against GlyT-1 [1] was 414000 nM. Moreover, the Ki on GlyT-1 [2] and at GlyT-1 [2] (setting [8]) was 103000 nM in each case.
Take `CN1CCCC[C@@H]1[C@@H](NC(=O)c1nccc(C(F)(F)F)c1Cl)c1ccsc1` [[^3H]CHIBA-3007, [^3H]3-chloro-N-((S)-((R)-1-methylpiperidin-2-yl)(thiophen-3-yl)methyl)-4-(trifluoromethyl)picolinamide]: the Kd at GlyT-1 [6] (room temperature, 0.3125–10 nM radioligand, n=3, read-out: Kd (apparent equilibrium dissociation constant)) turned out to be 1.61 ± 0.16 nM.
Molecule `[3H]C([3H])([3H])N1CCCC[C@@H]1[C@@H](NC(=O)c1nccc(C(F)(F)F)c1Cl)c1ccsc1` [[^3H]CHIBA-3007, [^3H]3-chloro-N-((S)-((R)-1-methylpiperidin-2-yl)(thiophen-3-yl)methyl)-4-(trifluoromethyl)picolinamide] returned a Nonspecific binding at GlyT-1 [6] of under 10%. For the same molecule, at GlyT-1 [6] (kinetic study, data not shown), the “Time to reach binding equilibrium” value is “less than 5 min”. At GlyT-1 [6] (over the concentration range 0.3125–10 nM), the “Specific binding as share of total binding” value is reported as over 90%. Further, the “Bmax (maximal number of binding sites)” value at GlyT-1 [6] (room temperature, n=3) is 692.8 fmol/mg protein and 692.8±22.8 fmol/mg protein. Besides, on GlyT-1 [7], the “Order of specific binding in brain regions” value is on record as “midbrain > pons > thalamus > cerebellum > striatum > hippocampus > cerebral cortex”.
Turning to `Cc1cccc(C)c1C(=O)N[C@@H](c1ccccc1)C1(N(C)C)CCCC1` [[^3H]GSK931145], the Kd on GlyT-1 [5] was 1 to 2 nM.
Consider `[3H]C([3H])([3H])N(C)C1([C@@H](NC(=O)c2c(C)cccc2C)c2ccccc2)CCCC1` [[^3H]GSK931145], for which the “Specific binding as share of total binding” value on GlyT-1 [5] (at concentrations around Kd) is listed as over 90%. In addition, the Bmax result at GlyT-1 [5] (rat brain) is reported as “around 3000 fmol/mg protein”.

Broadly, the IC50 is the midpoint of a concentration-inhibition curve. Broadly, the Ki is the dissociation constant of the complex between target and ligand, obtained from inhibition or displacement.
